Reference: patent publication US8658383B2, “Sweet taste receptor-expressing construct, cell body expressing the same, and utilization thereof” (T. Hasegawa Co., Ltd., priority 2009, dated 2014)
Residues, ends and D or L forms follow the SMILES beside them.

Key:
[1] = biological target: T1, human sweet taste receptor (hT1R2+hT1R3) (Homo sapiens, UniProt Q7RTX0+Q8TE23); test: Automated fluorescent calcium imaging (Fluo-4 AM, FlexStation 3) of cultured cell strain (A); format: cell-based; parameters: The sweet taste receptor subunits T1R2 and T1R3 include an entire part of each subunit; conditions: Average ± S.E., n = 2
T1 sequence (Q8TE23 20-839): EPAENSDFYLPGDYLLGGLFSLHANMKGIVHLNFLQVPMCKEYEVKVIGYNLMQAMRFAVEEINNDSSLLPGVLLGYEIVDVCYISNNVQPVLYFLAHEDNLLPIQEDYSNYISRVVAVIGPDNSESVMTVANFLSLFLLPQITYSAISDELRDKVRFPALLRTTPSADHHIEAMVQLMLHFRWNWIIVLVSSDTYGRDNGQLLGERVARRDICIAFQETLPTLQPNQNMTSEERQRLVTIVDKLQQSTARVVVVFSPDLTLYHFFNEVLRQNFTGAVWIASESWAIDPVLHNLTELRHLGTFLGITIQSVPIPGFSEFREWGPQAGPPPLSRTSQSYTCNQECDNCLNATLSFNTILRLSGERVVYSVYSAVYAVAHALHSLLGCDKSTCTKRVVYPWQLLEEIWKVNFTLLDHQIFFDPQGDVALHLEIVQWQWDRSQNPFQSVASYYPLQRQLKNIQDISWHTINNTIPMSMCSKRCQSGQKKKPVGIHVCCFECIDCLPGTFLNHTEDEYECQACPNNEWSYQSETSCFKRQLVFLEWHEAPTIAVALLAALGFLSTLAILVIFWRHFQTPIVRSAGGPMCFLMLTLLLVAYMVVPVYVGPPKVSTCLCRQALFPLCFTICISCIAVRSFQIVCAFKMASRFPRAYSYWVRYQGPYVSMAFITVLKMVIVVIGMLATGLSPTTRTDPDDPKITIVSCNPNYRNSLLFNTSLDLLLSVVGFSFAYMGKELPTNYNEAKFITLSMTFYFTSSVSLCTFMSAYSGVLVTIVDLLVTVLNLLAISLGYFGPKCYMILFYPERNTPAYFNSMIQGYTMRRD
T1 sequence (Q7RTX0 21-852): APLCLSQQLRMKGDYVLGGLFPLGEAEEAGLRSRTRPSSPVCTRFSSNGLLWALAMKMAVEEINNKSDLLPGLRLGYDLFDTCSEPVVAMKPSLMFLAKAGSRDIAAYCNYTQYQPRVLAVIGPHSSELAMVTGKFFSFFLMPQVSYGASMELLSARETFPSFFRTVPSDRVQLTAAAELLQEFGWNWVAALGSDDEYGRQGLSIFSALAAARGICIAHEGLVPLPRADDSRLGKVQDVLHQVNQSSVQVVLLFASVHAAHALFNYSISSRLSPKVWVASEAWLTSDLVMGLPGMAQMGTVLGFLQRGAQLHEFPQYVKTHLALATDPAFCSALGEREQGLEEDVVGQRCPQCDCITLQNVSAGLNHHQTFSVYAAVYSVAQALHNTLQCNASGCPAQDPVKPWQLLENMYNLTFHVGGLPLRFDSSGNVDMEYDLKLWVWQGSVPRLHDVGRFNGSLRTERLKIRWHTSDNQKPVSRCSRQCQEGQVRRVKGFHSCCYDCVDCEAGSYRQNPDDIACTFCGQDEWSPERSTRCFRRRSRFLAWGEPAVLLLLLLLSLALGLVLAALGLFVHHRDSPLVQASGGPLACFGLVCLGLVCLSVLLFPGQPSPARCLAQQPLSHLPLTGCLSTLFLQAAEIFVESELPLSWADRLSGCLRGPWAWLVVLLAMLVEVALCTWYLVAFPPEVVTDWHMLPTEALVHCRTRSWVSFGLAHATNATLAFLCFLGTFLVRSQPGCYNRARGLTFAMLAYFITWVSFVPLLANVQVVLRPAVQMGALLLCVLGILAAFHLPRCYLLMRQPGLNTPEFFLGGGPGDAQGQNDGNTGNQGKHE

[2] = biological target: T1, human sweet taste receptor (hT1R2+hT1R3); test: Fluorescent microscope calcium imaging (Fura-2 AM) of cultured cell strains (A) to (C); conditions: for cell response (response cell number of 100 randomly selected cells): Aspartame final concentration 10 mM, FIG. 11
Protocol: Fluorescent calcium imaging using a fluorescent microscope can be performed according to the following procedure.
First, cells are suspended in a low glucose (1,000 mg/ml) DMEM medium, from which hygromycin B has been removed, and each 40 to 80 thousands cells are seeded on each well of a 96-well plate (Greiner, Lumox).
Then, after cultured at 37° C. for 24 to 48 hours, a medium is removed and is replaced with a suitable amount of a HEPES buffer, and a HEPES buffer containing a fluorescent calcium indicator (Fura-2 AM) is further added.
After incubated at 27 to 37° C. for 30 to 60 minutes, an extracellular fluorescent indicator is removed, and this is finally replaced with a suitable amount of a HEPES buffer, and is allowed to stand at room temperature for 10 to 20 minutes. By adding thereto a sweet taste substance at a particular concentration or a solution of a sweet taste substance and a substance to be tested, taste stimulation is performed at room temperature. In the fluorescent indicator Fura-2 (excitation wavelength: 340 nm/380 nm, fluorescent wavelength: 510 nm), a fluorescent intensity of excitation at 340 nm is increased, and a fluorescent intensity of excitation at 380 nm is reduced, when a calcium ion concentration is increased.
Cells loaded with Fura-2 AM were excited at 340 nm and 380 nm, and a fluorescent image observed at 510 nm was taken using a fluorescent microscope and a CCD camera. While the image was taken, Aspartame at a final concentration of 10 mM was administered to cells and, thereafter, the image was continuously taken. From the field of the taken image, 100 cells were randomly selected, and the response cell number was counted.
Cells loaded with Fura-2 AM were excited at 340 nm and 380 nm, and a fluorescent image observed at 510 nm was taken using a fluorescent microscope and a CCD camera. While the image was taken, Aspartame at each final concentration of 0.1 mM, 0.5 mM, 1 mM, 2 mM and 5 mM was administered to cells and then the image was continuously taken.
Cells loaded with Fura-2 AM were excited at 340 nm and 380 nm, and a fluorescent image observed at 510 nm was taken by using a fluorescent microscope and a CCD camera. While the image was taken, Sucrose at each final concentration of 20 mM, 50 mM, 100 mM, 200 mM, 500 mM and 1 M was administered to cells and then the image was continuously taken.
Cells loaded with Fura-2 AM were excited at 340 nm and 380 nm, and a fluorescent image observed at 510 nm was taken by using a fluorescent microscope and a CCD camera. While the image was taken, sucrose at final concentration of 500 mM was administered to cells and then the image was continuously taken.

Change amount of fluorescent intensity (ΔF) ([1]; aspartame 0.08 mM): 4.8 ± 0.1
Change amount of fluorescent intensity (ΔF) ([1]; aspartame 5 mM): 31.1 ± 2.4
cell response (response cell number of 100 randomly selected cells) ([2]; cultured cell strain (A)): very strong cell response was observed
cell response (response cell number of 100 randomly selected cells) ([2]; cultured cell strain (B), compared with strain (A)): weaker cell response was observed
cell response (response cell number of 100 randomly selected cells) ([2]; cultured cell strain (C), compared with strain (A)): weaker cell response was observed
Structure (SMILES): COC(=O)[C@H](Cc1ccccc1)NC(=O)[C@@H](N)CC(=O)O [aspartame] (H-Asp-Phe-OMe)
sweet taste response (fluorescent images) ([2]; cultured cell strain (A), Aspartame in a range of 0.1 mM to 5 mM, FIG. 12): concentration-dependent sweet taste response was observed
